Reference: patent US5747235A, “Silver halide light sensitive emulsion layer having enhanced photographic sensitivity” (Eastman Kodak Company, priority 1996, dated 1998)
Structures can show the parent of a compound that is named as a salt.

Columns and labels:
[1] = Example 3: spectral sensitivity, wedge spectrographic exposure, emulsion T-2; settings: dyed control=100
Experimental: This emulsion was precipitated using deionized gelatin. […] The chemically sensitized emulsion was then used to prepare coatings containing the fragmentable two-electron donor compounds. All of the experimental coating variations in Table III contained the hydroxybenzene 2,4-disulfocatechol (HB3) at a concentration of 13 mmole/ mole Ag, added to the melt before the addition of any further addenda. Where present, the blue sensitizing dye D-I or the red sensitizing dye D-II were added from methanol solution to the emulsion at 40° C. after the chemical sensitization and disulfocatechol addition.
(§1) Additional testing was carried out to determine the response of the coatings described in Table III to a spectral exposure. Each of the coating strips was exposed for 0.1 sec on a wedge spectrographic instrument that covers the wavelength range from 400 to 750 nm. The instrument contains a tungsten light source and a step tablet ranging in density from 0 to 3 density units in 0.3 density steps. After developing exposed strips for 6 min in Kodak Rapid X-ray Developer (KRX), speed was read at 10 nm wavelength intervals at a density of 0.3 above fog. Correction for the instrument's variation in spectral irradiance with wavelength was done with a computer and a plot of log sensitivity vs. wavelength was generated. For this exposure, for each dye used, the relative sensitivity was set equal to 100 for the control coating with no fragmentable two-electron donor compound added.

[2] = Example 4: photographic speed and fog, 365 nm exposure, blue dyed emulsion T-2; design: Fog: unit not given here; settings: for Fog / S365: dye I 0.91 x10^-3; for S365: dyed control=100; for fog change: Table IV
Experimental: For photographic evaluation, each of the coating strips was exposed for 0.1 sec to a 365 nm emission line of a Hg lamp filtered through a Kodak Wratten filter number 18A and a step wedge ranging in density from 0 to 4 density units in 0.2 density steps. The exposed film strips were developed for 6 min in Kodak Rapid X-ray Developer (KRX). S365, relative sensitivity at 365 nm, was evaluated at a density of 0.2 units above fog.
An AgBrI tabular silver halide emulsion (Emulsion T-2) was prepared containing 4.05% total I distributed such that the central portion of the emulsion grains contained 1.5% I and the perimeter area contained substantially higher I, as described by Chang et. al., U.S. Pat. No. 5,314,793. […] This emulsion was precipitated using deionized gelatin. The emulsion was sulfur sensitized by adding 8.5×10^-6 mole 1,3-dicarboxymethyl-1,3-dimethyl-2-thiourea /mole Ag at 40° C.; the temperature was then raised to 60° C. at a rate of 5° C./3 min and the emulsions held for 20 min before cooling to 40° C. The chemically sensitized emulsion was then used to prepare coatings containing the fragmentable two-electron donor compounds. All of the experimental coating variations in Table III contained the hydroxybenzene 2,4-disulfocatechol (HB3) at a concentration of 13 mmole/ mole Ag, added to the melt before the addition of any further addenda. Where present, the blue sensitizing dye D-I or the red sensitizing dye D-II were added from methanol solution to the emulsion at 40° C. after the chemical sensitization and disulfocatechol addition. The fragmentable two-electron donor compounds were added to the emulsion at 40° C. and the coatings were prepared and tested as described in Example 1, except that the additional gelatin used to prepare the coatings described in Table III was deionized gelatin.
The chemically sensitized AgBrI tabular emulsion T-2 as described in Example 3 was used to prepare the experimental coating variations listed in Table IV, comparing various structurally related fragmentable two-electron donating compounds varying in first oxidation potential E1. The blue sensitizing dye D-I was added from methanol solution to the emulsion at 40° C. after the chemical sensitization. The fragmentable two-electron donating compounds were then added to the emulsion and coatings prepared and tested as described in Example 3.

[3] = Example 8: spectral sensitivity, cubic emulsion C-1; settings: dye II 0.44 x10^-3, dyed control=100
Experimental: as §1
Two cubic emulsions with uniform halide composition were precipitated using deionized gelatin. Emulsion C-1 was a AgErI emulsion with a 3% I content and a cubic edge length of 0.47 μm and emulsion C-2 was an AgBr emulsion with a cubic edge length of 0.52 μm. The emulsions were sulfur sensitized by adding 1,3-dicarboxymethyl-1,3-dimethyl-2-thiourea at 40° C.; the temperature was then raised to 60° C. at a rate of 5° C./3 min and the emulsions held for 20 min before cooling to 40° C. The amounts of the sulfur sensitizing compound used were 1.0×10^-5 mole/mole Ag for emulsion C-1, and 6.0×10^-6mole/mole Ag for emulsion C-2. These experimental coating variations contained the hydroxybenzene, 2,4-disulfocatechcol (HB3) at a concentration of 13 mmole/mole Ag, added to the melt before the addition of any further compounds. Some of the variations were then dyed with the sensitizing dye D-II, added from methanol solution. The fragmentable electron donor compounds were then added to the emulsion melts at 40° C. and coatings were prepared and tested as described in Example 1 except that the additional gelatin used to prepare the coatings described in Table VIII was deionized gelatin. Also, the dyed coatings were tested for their response to a spectral exposure as described in Example 3.

[4] = 0.0022 x10^-3 mole/mole Ag, dye II 0.86 x10^-3
[5] = 0.022 x10^-3 mole/mole Ag, dye I 0.91 x10^-3
[6] = 0.007 x10^-3 mole/mole Ag, dye II 0.86 x10^-3
[7] = 0.07 x10^-3 mole/mole Ag, dye I 0.91 x10^-3

Row | SMILES | Sλ [1, 4] | Sλ [1, 5] | Sλ [1, 6] | Sλ [1, 7] | Fog ([2]; 0.22 x10^-3 mole/mole Ag) | S365 ([2]; 0.22 x10^-3 mole/mole Ag) | Fog ([2]; 0.44 x10^-3 mole/mole Ag) | S365 ([2]; 0.44 x10^-3 mole/mole Ag) | Fog ([2]; 0.88 x10^-3 mole/mole Ag) | fog change [2] | Sλ ([3]; 0.005 x10^-3 mol/mol Ag) | Sλ ([3]; 0.016 x10^-3 mol/mol Ag) | S365 ([2]; 0.88 x10^-3 mole/mole Ag) | Sλ ([3]; 0.05 x10^-3 mol/mol Ag) | Sλ ([3]; 0.16 x10^-3 mol/mol Ag)
1 | CCSCCN(c1ccc(C)cc1)[C@@H](C)C(=O)[O-].[Na+] [Compound S-3, N-(4-Methylphenyl)-N-(2-ethylthio-ethyl)alanine sodium salt] | 166 | 120 | – | – | – | – | – | – | – | – | – | – | – | – | –
2 | CCSCCN(c1ccc(C)cc1)C(CC(=O)O)C(=O)O (stereo not drawn) [Compound S-8] | 141 | 112 | 166 | 112 | – | – | – | – | – | – | – | – | – | – | –
3 | CCSCCN(c1ccccc1)C(C)C(=O)O (stereo not drawn) [Compound S-9, N-(Phenyl)-N-(2-thioethyl-ethyl)alanine sodium salt] | 162 | 126 | 141 | 138 | 0.21 | 129 | 0.41 | 102 | 0.63 | modest increases in fog | 145 | 178 | – | – | –
4 | CCSCCN(c1ccc(C(=O)O)cc1)C(C)C(=O)O (stereo not drawn) [Compound S-11] | – | – | – | – | 0.05 | 145 | 0.06 | 145 | 0.07 | – | – | – | 145 | 151 | 178
5 | CCSCCN(c1ccc(Cl)cc1)C(C)C(=O)O (stereo not drawn) [Compound S-12, N-(4-Chlorophenyl)-N-(2-thioethyl-ethyl)alanine sodium salt] | – | – | – | – | 0.18 | 145 | 0.21 | 141 | 0.29 | modest increases in fog | – | – | 138 | – | –
6 | CCSCCN(c1cccc(C(N)=O)c1)C(C)C(=O)O (stereo not drawn) [Compound S-13] | – | – | – | – | 0.10 | 151 | 0.13 | 151 | 0.14 | – | – | – | 166 | – | –
